Source: US9771369B2, “Compounds and methods for kinase modulation, and indications therefor” (Plexxikon Inc., priority 2014, dated 2017)
pIC50: −log10 of the molar value.

What was measured:
[1] = tested on: BaF3-FL KIT D816V or BaF3-FL KIT V560G/D816V cell line; experiment: Cell-based assays of c-Kit mutant kinase activity (cell proliferation, ATPlite); details: at least one of the c-kit cell assays of Example 7
In short: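 BaF3 cells dependent on transfected full-length human KIT D816V or V560G/D816V (pCI-Neo, CMV promoter) were seeded at 1×10^4 cells/well and exposed to 8-point 1:3 dilutions from 10 μM top (0.2% DMSO) for three days at 37° C. ATPlite luminescence gave cell number; IC50 from concentration-response.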

c-Kit kinase = c-Kit kinase (Homo sapiens (Human), UniProt P10721); experiment: c-Kit biochemical assay (AlphaScreen kinase activity)
Sequence of c-Kit kinase (P10721 26-976): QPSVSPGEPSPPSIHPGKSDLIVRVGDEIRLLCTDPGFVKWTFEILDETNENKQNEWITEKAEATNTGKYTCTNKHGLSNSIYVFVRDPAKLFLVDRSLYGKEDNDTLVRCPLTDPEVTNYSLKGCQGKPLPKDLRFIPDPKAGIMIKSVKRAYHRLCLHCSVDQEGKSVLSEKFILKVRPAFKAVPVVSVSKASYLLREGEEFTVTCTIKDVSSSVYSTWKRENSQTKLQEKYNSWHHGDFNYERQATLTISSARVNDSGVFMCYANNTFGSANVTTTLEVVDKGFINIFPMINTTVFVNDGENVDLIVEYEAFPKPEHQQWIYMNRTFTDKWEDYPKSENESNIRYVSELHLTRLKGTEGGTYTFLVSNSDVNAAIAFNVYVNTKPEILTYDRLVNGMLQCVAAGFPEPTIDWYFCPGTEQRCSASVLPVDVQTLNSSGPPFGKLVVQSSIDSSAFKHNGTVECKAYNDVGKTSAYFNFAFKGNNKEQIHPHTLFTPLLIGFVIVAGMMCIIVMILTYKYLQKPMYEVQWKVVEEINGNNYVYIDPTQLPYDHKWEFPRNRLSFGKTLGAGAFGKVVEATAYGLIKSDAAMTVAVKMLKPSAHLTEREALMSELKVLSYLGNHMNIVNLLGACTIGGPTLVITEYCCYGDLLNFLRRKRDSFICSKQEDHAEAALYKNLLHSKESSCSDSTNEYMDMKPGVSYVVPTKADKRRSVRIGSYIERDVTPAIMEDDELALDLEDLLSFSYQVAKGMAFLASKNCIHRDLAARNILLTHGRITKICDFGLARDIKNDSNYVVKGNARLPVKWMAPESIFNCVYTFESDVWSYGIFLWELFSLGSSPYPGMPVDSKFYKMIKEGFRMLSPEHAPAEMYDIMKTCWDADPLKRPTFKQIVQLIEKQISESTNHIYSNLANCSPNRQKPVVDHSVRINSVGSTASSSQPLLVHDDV
In short: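 IC50 values come from 8-point, 1:3 compound titrations measuring inhibition of peptide phosphorylation by c-Kit (commercial or His-tagged E. coli-expressed) over 1 h at room temperature, read by AlphaScreen PY30/streptavidin beads. Low-ATP version: 10 μM ATP, 100 nM biotin-(E4Y)3; high-ATP version: 100 μM ATP, 30 nM biotin-(E4Y)10.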

| SMILES | pIC50 [1] | IC50 (c-Kit kinase) [µM] |
| --- | --- | --- |
| COc1ccc(-c2[nH]c(C3(C)CCN(c4ncnc5[nH]c(-c6ccc(NS(C)(=O)=O)cc6)cc45)CC3)nc2C)cc1C [P-3228, N-[4-[4-[4-[5-(4-methoxy-3-methyl-phenyl)-4-methyl-1H-imidazol-2-yl]-4-methyl-1-piperidyl]-7H-pyrrolo[2,3-d]pyrimidin-6-yl]phenyl]methanesulfonamide] | > 5.00 | 0.0001 to 1 |
| COc1cc(-c2cc3c(N4CCC(c5nnc(-c6cccc(OC(F)F)c6)[nH]5)CC4)ncnc3[nH]2)ccn1 [P-3207, 4-[4-[5-[3-(difluoromethoxy)phenyl]-4H-1,2,4-triazol-3-yl]-1-piperidyl]-6-(2-methoxy-4-pyridyl)-7H-pyrrolo[2,3-d]pyrimidine] | > 5.00 | 1 to 10 |
| Cc1nc(C2(C)CCN(c3ncnc4[nH]c(-c5cnn(C(F)F)c5)cc34)CC2)[nH]c1-c1ccc(C(F)F)cc1 [P-3189, 4-[4-[5-[4-(difluoromethyl)phenyl]-4-methyl-1H-imidazol-2-yl]-4-methyl-1-piperidyl]-6-[1-(difluoromethyl)pyrazol-4-yl]-7H-pyrrolo[2,3-d]pyrimidine] | > 5.00 | 0.0001 to 1 |
| COc1ccc(-c2[nH]c(C3CCN(c4ncnc5[nH]c(-c6ccc(C#N)cc6)cc45)CC3)nc2C)cc1 [P-3015, 4-[4-[4-[5-(4-methoxyphenyl)-4-methyl-1H-imidazol-2-yl]-1-piperidyl]-7H-pyrrolo[2,3-d]pyrimidin-6-yl]benzonitrile] | > 5.00 | 0.0001 to 1 |
| COc1ccc(-c2cc3c(N4CCC(C)(c5nc(C)c(-c6cccc(OC(F)F)c6)[nH]5)CC4)ncnc3[nH]2)cn1 [P-3193, 4-[4-[5-[3-(difluoromethoxy)phenyl]-4-methyl-1H-imidazol-2-yl]-4-methyl-1-piperidyl]-6-(6-methoxy-3-pyridyl)-7H-pyrrolo[2,3-d]pyrimidine] | > 5.00 | 0.0001 to 1 |
| COc1ccc(-c2[nH]c(C3(C)CCN(c4ncnc5[nH]c(-c6ccc(NS(C)(=O)=O)cc6)cc45)CC3)nc2C)cc1F [P-3213, N-[4-[4-[4-[5-(3-fluoro-4-methoxy-phenyl)-4-methyl-1H-imidazol-2-yl]-4-methyl-1-piperidyl]-7H-pyrrolo[2,3-d]pyrimidin-6-yl]phenyl]methanesulfonamide] | > 5.00 | 0.0001 to 1 |
| Cc1nc(C2(C)CCN(c3ncnc4[nH]nc(C)c34)CC2)[nH]c1-c1ccc2c(c1)OC(F)(F)O2 [P-3203, 4-[4-[5-(2,2-difluoro-1,3-benzodioxol-5-yl)-4-methyl-1H-imidazol-2-yl]-4-methyl-1-piperidyl]-3-methyl-1H-pyrazolo[3,4-d]pyrimidine] | > 5.00 | 1 to 10 |
| Cc1nc(C2(C)CCN(c3ncnc4[nH]c(-c5ccc(N6CCOCC6)nc5)cc34)CC2)[nH]c1-c1cccc(OC(F)F)c1 [P-3238, 4-[5-[4-[4-[5-[3-(difluoromethoxy)phenyl]-4-methyl-1H-imidazol-2-yl]-4-methyl-1-piperidyl]-7H-pyrrolo[2,3-d]pyrimidin-6-yl]-2-pyridyl]morpholine] | > 5.00 | 0.0001 to 1 |
| CNC(=O)c1ccc(-c2cc3c(N4CCC(C)(c5nc(C)c(-c6ccc(C(F)F)cc6)[nH]5)CC4)ncnc3[nH]2)cn1 [P-3235, 5-[4-[4-[5-[4-(difluoromethyl)phenyl]-4-methyl-1H-imidazol-2-yl]-4-methyl-1-piperidyl]-7H-pyrrolo[2,3-d]pyrimidin-6-yl]-N-methyl-pyridine-2-carboxamide] | > 5.00 | 0.0001 to 1 |
| COc1ccc(-c2[nH]c(C3(C)CCN(c4ncnc5[nH]c(-c6ccc(C(=O)O)cc6)cc45)CC3)nc2C)cc1F [P-3199, 4-[4-[4-[5-(3-fluoro-4-methoxy-phenyl)-4-methyl-1H-imidazol-2-yl]-4-methyl-1-piperidyl]-7H-pyrrolo[2,3-d]pyrimidin-6-yl]benzoic acid] | > 5.00 | 0.0001 to 1 |
| Cc1cc2c(N3CCC(C)(c4nc(C)c(-c5ccc(OC(F)F)cc5)[nH]4)CC3)ncnc2[nH]1 [P-3196, 4-[4-[5-[4-(difluoromethoxy)phenyl]-4-methyl-1H-imidazol-2-yl]-4-methyl-1-piperidyl]-6-methyl-7H-pyrrolo[2,3-d]pyrimidine] | > 5.00 | 1 to 10 |
| COc1cc(-c2cc3c(N4CCC(c5nc(C)c(-c6cccc(OC(F)(F)F)c6)[nH]5)CC4)ncnc3[nH]2)ccn1 [P-3014, 6-(2-methoxy-4-pyridyl)-4-[4-[4-methyl-5-[3-(trifluoromethoxy)phenyl]-1H-imidazol-2-yl]-1-piperidyl]-7H-pyrrolo[2,3-d]pyrimidine] | > 5.00 | 1 to 10 |
| Cc1nc(C2(C)CCN(c3ncnc4[nH]c(-c5ccc(C#N)cc5)cc34)CC2)[nH]c1-c1ccc(OC(F)F)cc1 [P-3195, 4-[4-[4-[5-[4-(difluoromethoxy)phenyl]-4-methyl-1H-imidazol-2-yl]-4-methyl-1-piperidyl]-7H-pyrrolo[2,3-d]pyrimidin-6-yl]benzonitrile] | > 5.00 | 0.0001 to 1 |
| COc1ccc(-c2[nH]c(C3(C)CCN(c4ncnc5[nH]c(C)cc45)CC3)nc2C)cc1F [P-3183, 4-[4-[5-(3-fluoro-4-methoxy-phenyl)-4-methyl-1H-imidazol-2-yl]-4-methyl-1-piperidyl]-6-methyl-7H-pyrrolo[2,3-d]pyrimidine] | > 5.00 | 0.0001 to 1 |
| Cc1cc2c(N3CCC(C)(c4nc(C)c(-c5ccc(C(F)F)cc5)[nH]4)CC3)ncnc2[nH]1 [P-3184, 4-[4-[5-[4-(difluoromethyl)phenyl]-4-methyl-1H-imidazol-2-yl]-4-methyl-1-piperidyl]-6-methyl-7H-pyrrolo[2,3-d]pyrimidine] | > 5.00 | 0.0001 to 1 |
| CNC(=O)c1ccc(-c2cc3c(N4CCC(C)(c5nc(C)c(-c6cccc(OC)c6)[nH]5)CC4)ncnc3[nH]2)cn1 [P-3222, 5-[4-[4-[5-(3-methoxyphenyl)-4-methyl-1H-imidazol-2-yl]-4-methyl-1-piperidyl]-7H-pyrrolo[2,3-d]pyrimidin-6-yl]-N-methyl-pyridine-2-carboxamide] | > 5.00 | 0.0001 to 1 |
| CCOc1ccc(-c2[nH]c(C3(C)CCN(c4ncnc5[nH]c(-c6cnn(C(F)F)c6)cc45)CC3)nc2C)cc1C [P-3245, 6-[1-(difluoromethyl)pyrazol-4-yl]-4-[4-[5-(4-ethoxy-3-methyl-phenyl)-4-methyl-1H-imidazol-2-yl]-4-methyl-1-piperidyl]-7H-pyrrolo[2,3-d]pyrimidine] | > 5.00 | 0.0001 to 1 |
| COc1ccc(-c2[nH]c(C3CCN(c4ncnc5[nH]c(-c6ccc(C#N)cc6)cc45)CC3)nc2C)cc1F [P-3018, 4-[4-[4-[5-(3-fluoro-4-methoxy-phenyl)-4-methyl-1H-imidazol-2-yl]-1-piperidyl]-7H-pyrrolo[2,3-d]pyrimidin-6-yl]benzonitrile] | > 5.00 | 1 to 10 |
| CCc1[nH]c(C2CCN(c3ncnc4[nH]c(-c5ccc(C#N)cc5)cc34)CC2)nc1C [P-3198, 4-[4-[4-(5-ethyl-4-methyl-1H-imidazol-2-yl)-1-piperidyl]-7H-pyrrolo[2,3-d]pyrimidin-6-yl]benzonitrile] | > 5.00 | 1 to 10 |
| CNC(=O)c1ccc(-c2cc3c(N4CCC(C)(c5nc(C)c(-c6ccc(OC)c(F)c6)[nH]5)CC4)ncnc3[nH]2)cn1 [P-3220, 5-[4-[4-[5-(3-fluoro-4-methoxy-phenyl)-4-methyl-1H-imidazol-2-yl]-4-methyl-1-piperidyl]-7H-pyrrolo[2,3-d]pyrimidin-6-yl]-N-methyl-pyridine-2-carboxamide] | > 5.00 | 0.0001 to 1 |
| Cc1nc(C2CCN(c3ncnc4[nH]c(-c5ccc(C#N)cc5)cc34)CC2)[nH]c1-c1cccc(F)c1 [P-3016, 4-[4-[4-[5-(3-fluorophenyl)-4-methyl-1H-imidazol-2-yl]-1-piperidyl]-7H-pyrrolo[2,3-d]pyrimidin-6-yl]benzonitrile] | > 5.00 | 1 to 10 |
| CCOc1ccc(-c2[nH]c(C3(C)CCN(c4ncnc5[nH]c(-c6ccc(C(N)=O)cc6)cc45)CC3)nc2C)cc1C [P-3243, 4-[4-[4-[5-(4-ethoxy-3-methyl-phenyl)-4-methyl-1H-imidazol-2-yl]-4-methyl-1-piperidyl]-7H-pyrrolo[2,3-d]pyrimidin-6-yl]benzamide] | > 5.00 | 0.0001 to 1 |
| COc1ccc(-c2[nH]c(C3(C)CCN(c4ncnc5[nH]c(-c6ccc(N7CCOCC7)nc6)cc45)CC3)nc2C)cc1C [P-3219, 4-[5-[4-[4-[5-(4-methoxy-3-methyl-phenyl)-4-methyl-1H-imidazol-2-yl]-4-methyl-1-piperidyl]-7H-pyrrolo[2,3-d]pyrimidin-6-yl]-2-pyridyl]morpholine] | > 5.00 | 0.0001 to 1 |
| COc1ccc(-c2nc(C3(C)CCN(c4ncnc5[nH]c(C)cc45)CC3)[nH]c2C)cn1 [P-3186, 4-[4-[4-(6-methoxy-3-pyridyl)-5-methyl-1H-imidazol-2-yl]-4-methyl-1-piperidyl]-6-methyl-7H-pyrrolo[2,3-d]pyrimidine] | > 5.00 | 1 to 10 |
| Cc1nc(C2(C)CCN(c3ncnc4[nH]nc(C)c34)CC2)[nH]c1-c1ccc(Cl)cc1 [P-3200, 4-[4-[5-(4-chlorophenyl)-4-methyl-1H-imidazol-2-yl]-4-methyl-1-piperidyl]-3-methyl-1H-pyrazolo[3,4-d]pyrimidine] | > 5.00 | 1 to 10 |
| CCOc1ccc(-c2[nH]c(C3(C)CCN(c4ncnc5[nH]c(-c6ccc(C(=O)NC)nc6)cc45)CC3)nc2C)cc1 [P-3226, 5-[4-[4-[5-(4-ethoxyphenyl)-4-methyl-1H-imidazol-2-yl]-4-methyl-1-piperidyl]-7H-pyrrolo[2,3-d]pyrimidin-6-yl]-N-methyl-pyridine-2-carboxamide] | > 5.00 | 0.0001 to 1 |
